The values that follow come from US10517867B2, “Posaconazole derivative, pharmaceutical composition and use thereof” (priority 2016, dated 2019).

Broadly, the Solubility is the concentration that dissolves in the medium under given conditions.

Data set [1] concerns Candida albicans ATCC10231. Nature of the data set: Systemic fungal infection in mice, intragastric administration. The conditions noted are these: 20 mg/kg intragastric once daily for 5 days. It is filed as in vivo, ICR mice.
Data set [2] concerns Candida albicans ATCC10231. Nature of the data set: Candida albicans vaginitis in mice, intravenous administration. The conditions noted are these: logarithm of the CFU values, mean ± SD of 20 mice, 20 mg/kg.
Procedure: KM mice, weighing 18-22 g, female, provided by Hubei Experimental Animal Center.
The standard strain of Candida albicans was purchased from the American Type Culture
Collection, strain number ATCC10231.
Prior to being infected with Candida albicans, animals in each group were given subcutaneous injections of 0.5 ml of estradiol benzoate (2 mg/ml) for 6 consecutive days to allow them to enter the estrus phase. Injections were continued once every 2 days until the completion of the experiment. After 6 days, 20 μl of Candida albicans solution in a concentration of 3.5×10^6 CFU/ml was injected vaginally into each mouse, causing a vaginal infection model. From the first day after infection, each group of animals was given 20 mg/kg of the corresponding drug (calculated as posaconazole) in the tail vein at an administration volume of 0.1 ml/10 g once a day for 5 consecutive days. The model group was given an equal volume of solvent (physiological saline). On the 3rd and 5th days after infection, the vagina of mice were wiped with sterile cotton swabs. The cotton swabs were soaked in 0.9 ml physiological saline. The fungal solutions were diluted to 10-fold increments to give a series of concentrations, and then 100 μl of each concentration of the bacteria solutions was taken and inoculated on Sabourand's dextrose agar solid medium containing 0.5% (W/V) chloramphenicol to observe the fungal load of Candida albicans on the vagina.
Data set [3] relates to Aspergillus fumigatus AF293. The data set can be described thus: Lung Aspergillus fumigatus infection in immunosuppressed mice, intravenous administration. The conditions noted are these: 20 mg/kg tail vein once daily for 5 days.
A short description of data set [4]: Determination of solubility in deionized water (HPLC, external standard). Conditions: 25±2° C., after 30 min.
Data set [5] relates to Aspergillus Fumigutus (AF) strains. Nature of the data set: Aspergillus fumigatus keratitis in rats, intravenous administration. The conditions noted are these: 10 mg/kg tail vein once daily for 5 days; mean ± SD of 10 rats.
Data set [6] has as its system Candida albicans ATCC10231. Nature of the data set: Candida albicans vaginitis in mice, intragastric administration. The conditions noted are these: logarithm of the CFU values, mean ± SD of 20 mice, 20 mg/kg. It is filed as in vivo, KM mice.
For data set [7], the system named is Aspergillus fumigatus AF293. Nature of the data set: Lung Aspergillus fumigatus infection in immunosuppressed mice, intragastric administration. Conditions: mouse lung tissue, seven days later; 20 mg/kg intragastric once daily for 5 days; mean ± SD; 20 mg/kg.
Procedure: Aspergillus fumigatus AF293, from the Guangdong Provincial Microbial Culture Collection Center.
ICR male mice were injected intraperitoneally with cyclophosphamide 150 mg/kg and injected subcutaneously with dexamethasone 150 mg/kg for 10 consecutive days. At the same time, the blood was taken to measure the changes of peripheral white blood cells and neutrophils, and mice with neutrophils consistently lower than 100/μl were selected as successfully immunosuppressed mice. Immediately after the last injection, the mice were anesthetized with ethyl ether, and mice were transferred from the initial state of excitement to inhibition. After their bodies were relaxed, the mice were immediately taken. Left hand was used to grasp the mouse to make it stand upright, the middle finger pressed the mouth so that it could breath only with the nose, and the ring finger gently pressed the abdomen to move the diaphragm muscle upward. 30 μl of conidia suspension (Aspergillus fumigatus AF293, 3×10^6 conidia) was sent to the nostrils of the anesthetized mice by a micropipette to allow spontaneous inhalation. After the mouse returned to normal breathing, it was returned to the cage. […] Seven days later, the mice were sacrificed and their lung tissues were taken to observe the fungal loads of Aspergillus fumigatus in the lungs of the mice.

For `CC[C@@H]([C@H](C)O)n1ncn(-c2ccc(N3CCN(c4ccc(OC[C@@H]5CO[C@@](Cn6c[n+](C(C)OC(=O)N(C)c7ncccc7COC(=O)[C@@H](N)CCCN)cn6)(c6ccc(F)cc6F)C5)cc4)CC3)cc2)c1=O` (stereo partly drawn) [ST0011], the “survival rate of mice, day 1” value in data set [1] (day 1) and in data set [3] (day 1) was 100% throughout. Further, the “survival rate of mice, day 2” value in data set [1] (day 2) and in data set [3] (day 2) was 100% each time. For the same compound, the “survival rate of mice, day 3” value in data set [1] (day 3) was 90%; in data set [3] (day 3), 100%. Besides, the “survival rate of mice, day 4” value in data set [1] (day 4) is reported as 80%; in data set [3] (day 4), 100%. Moreover, the “survival rate of mice, day 5” value in data set [1] (day 5) turned out to be 70%; in data set [3] (day 5), 90%. Besides, the “survival rate of mice, day 6” value is 60% in data set [1] (day 6) and 90% in data set [3] (day 6). The “survival rate of mice, day 7” value in data set [1] (day 7) was found to be 60%. For the same compound, the “vaginal fungal load of mice, day 5” value in data set [2] (20 mg/kg tail vein once a day for 5 days, day 5 after infection) was determined as 3.75 ± 0.47; in data set [6] (20 mg/kg intragastric once a day, day 5), 4.35 ± 0.47. Further, the “vaginal fungal load of mice, day 3” value in data set [2] (20 mg/kg tail vein once a day, day 3 after infection) amounted to 4.09 ± 0.39; in data set [6] (20 mg/kg intragastric once a day, day 3) it was 4.18 ± 0.27. Also, the lung fungal load in data set [3] (mouse lung tissue, seven days later, mean ± SD, 20 mg/kg) is given as 1.46 ± 0.27 10^4 CFU/ml; in data set [7] it was 3.47 ± 0.71 10^4 CFU/ml. In data set [4], this compound came in with a Solubility above 50 mg/mL. Further, the “Amount of active fungi in cornea at day 7” value in data set [5] is 1.79 ± 0.44 10^3 CFU/ml. In addition, the “vaginal fungal load of mice, day 15” value in data set [6] (20 mg/kg intragastric once a day for 15 days, day 15) is 2.81 ± 0.27. In addition, the “vaginal fungal load of mice, day 7” value in data set [6] (20 mg/kg intragastric once a day, day 7) amounted to 3.85 ± 0.67. The “vaginal fungal load of mice, day 11” value in data set [6] (20 mg/kg intragastric once a day, day 11) is given as 3.29 ± 0.20.
